Structures are written as SMILES. Several values for one entry are separate records, joined by “and”; a condition that tells them apart may be missing. Equal entries are not always repeated.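 A five-concentration, 48-hour dose response in 96-well plates underlies each endpoint, interpolated linearly between surrounding concentrations. GI50 is the concentration that inhibits growth by half. TGI denotes the concentration required for complete inhibition of growth.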

The first test concerns NCI-H23 lung. The experiment in a line: inhibition of tumour cell growth, NCI panel, 48 h.
Consider `COc1cccc(/C=N/NC(=O)c2ccccc2Nc2ccnc(C(F)(F)F)c2)c1O`, for which the GI50 is 0.904 µM and the TGI was determined as 46.9 µM.

`Cc1ccc(CS/C(=C\c2ccc([N+](=O)[O-])cc2)C(=O)c2ccc(F)cc2)cc1`: the GI50 is 4.78 µM and the TGI was found to be 41 µM.

The compound `CCOC(=O)CCc1cc(=O)oc2cc(O)cc(O)c12` gave a TGI above 100 µM.

For the compound `COC(=O)c1cc2c3ccccc3[nH]c2c2ncccc12`, the GI50 was 27.2 µM and the TGI was above 100 µM.

Compound `CNC(=O)OCc1c(COC(=O)NC)c(-c2ccc(Cl)c(Cl)c2)n2c1SCC2` yielded a TGI of 40.5 µM.

In the case of `C[C@]12CC[C@H](O)CC1=CC[C@@H]1[C@@H]2CC[C@]2(C)C(c3cccnc3)=CC[C@@H]12`, the GI50 is 12.2 µM and the TGI was above 100 µM.

Regarding `Cc1ccc2c(c1)C(=O)/C(=C/c1ncc([N+](=O)[O-])n1C)O2`, the GI50 was 2.28 µM and the TGI was determined as 6.56 µM.

The compound `CC1OC(n2cc(F)c(=O)[nH]c2=O)CCC1O` (stereo unspecified) gave a TGI above 100 µM.

With `O=C(NCCOCCOCCNc1cccc2c1C(=O)N(C1CCCNC1=O)C2=O)c1cc2c(o1)C(=O)c1ccccc1C2=O` (stereo unspecified), the GI50 is 0.313 µM and the TGI amounted to 1.79 µM.

With `O=C(CN1CCOCC1)Nc1ccc(Cn2nnc3c2C(=O)c2nnn(Cc4ccc(NC(=O)CN5CCOCC5)cc4)c2C3=O)cc1`, the GI50 was 0.802 µM and the TGI amounted to 3.61 µM.

For `CCCCC/C(C=C(C#N)C#N)=C/c1ccccc1`, the GI50 was 3.62 µM and the TGI is 13.6 µM.

As to `CC1CCC2(C(=O)O)CCC3(C)C(=CCC4C5(C)CC(O)C(O)C(C)(CO)C5C(O)CC43C)C2C1C` (stereo unspecified), the TGI was above 100 µM.

Consider `COc1cnc2cc(C(=O)O)c3c([N+](=O)[O-])cccc3c2c1`, for which the TGI was above 100 µM.

As for `Cc1ccc(S(=O)(=O)N(CCOc2ccc(/C(N)=N/Cl)cc2)CCOc2ccc(/C(N)=N\Cl)cc2)cc1`, the GI50 was 12 µM and the TGI worked out at 40.1 µM.

For the compound `COc1ccc(C2=NN(C(=O)c3cc(OC)c(OC)c(OC)c3)C(c3ccc(C#N)cc3)C2)cc1OC` (stereo unspecified), the GI50 is 3.07 µM and the TGI is above 74 µM.

With `CCOc1cccc(/C=N/NC(=O)c2ccccc2Nc2ccnc(C(F)(F)F)c2)c1O`, the GI50 is 1.08 µM and the TGI is above 64.5 µM.

As for `CCOC(=O)/C=C(/C(=O)OCC)n1cc(Cl)c(=O)n(CC(=O)OCC)c1=O`, the GI50 was 20 µM; the TGI was 10.8 µM and 41.5 µM.

The subject of another test is SF-295 CNS. The experiment in a line: inhibition of tumour cell growth, NCI panel, 48 h.
In the case of `COc1cccc(/C=N/NC(=O)c2ccccc2Nc2ccnc(C(F)(F)F)c2)c1O`, the GI50 is 0.522 µM and the TGI is 29.1 µM.

In the case of `Cc1ccc(CS/C(=C\c2ccc([N+](=O)[O-])cc2)C(=O)c2ccc(F)cc2)cc1`, the GI50 was 2.25 µM and the TGI was determined as 6.48 µM.

Take `CCOC(=O)CCc1cc(=O)oc2cc(O)cc(O)c12`: the TGI was above 100 µM.

With `COC(=O)c1cc2c3ccccc3[nH]c2c2ncccc12`, the GI50 was 36.9 µM and the TGI was above 100 µM.

`CNC(=O)OCc1c(COC(=O)NC)c(-c2ccc(Cl)c(Cl)c2)n2c1SCC2` had a TGI of 35.7 µM.

For `C[C@]12CC[C@H](O)CC1=CC[C@@H]1[C@@H]2CC[C@]2(C)C(c3cccnc3)=CC[C@@H]12`, the GI50 is 6.07 µM and the TGI is above 100 µM.

Regarding `Cc1ccc2c(c1)C(=O)/C(=C/c1ncc([N+](=O)[O-])n1C)O2`, the GI50 is 2.22 µM and the TGI was found to be 7.82 µM.

Regarding `CC1OC(n2cc(F)c(=O)[nH]c2=O)CCC1O` (stereo unspecified), the TGI was above 100 µM.

Take `O=C(NCCOCCOCCNc1cccc2c1C(=O)N(C1CCCNC1=O)C2=O)c1cc2c(o1)C(=O)c1ccccc1C2=O` (stereo unspecified): the GI50 was 1.7 µM and the TGI was found to be 3.13 µM.

Regarding `O=C(CN1CCOCC1)Nc1ccc(Cn2nnc3c2C(=O)c2nnn(Cc4ccc(NC(=O)CN5CCOCC5)cc4)c2C3=O)cc1`, the GI50 was 1.65 µM and the TGI came out at 3.68 µM.

As for `CCCCC/C(C=C(C#N)C#N)=C/c1ccccc1`, the GI50 was 2.76 µM and the TGI is 14.6 µM.

In turn, `CC1CCC2(C(=O)O)CCC3(C)C(=CCC4C5(C)CC(O)C(O)C(C)(CO)C5C(O)CC43C)C2C1C` (stereo unspecified) yielded a TGI above 100 µM.

For the compound `COc1cnc2cc(C(=O)O)c3c([N+](=O)[O-])cccc3c2c1`, the TGI was above 100 µM.

For the compound `Cc1ccc(S(=O)(=O)N(CCOc2ccc(/C(N)=N/Cl)cc2)CCOc2ccc(/C(N)=N\Cl)cc2)cc1`, the GI50 was 7.71 µM and the TGI was 42.9 µM.

For the compound `COc1ccc(C2=NN(C(=O)c3cc(OC)c(OC)c(OC)c3)C(c3ccc(C#N)cc3)C2)cc1OC` (stereo unspecified), the GI50 is 0.351 µM and the TGI was determined as 2.37 µM.

Consider `CCOc1cccc(/C=N/NC(=O)c2ccccc2Nc2ccnc(C(F)(F)F)c2)c1O`, for which the GI50 is 0.516 µM and the TGI was determined as 30.6 µM.

On to `CCOC(=O)/C=C(/C(=O)OCC)n1cc(Cl)c(=O)n(CC(=O)OCC)c1=O`, for which the GI50 was above 100 µM and the TGI was above 100 µM.

In the next test the test system is SK-MEL-5 melanoma. Briefly: inhibition of tumour cell growth, NCI panel, 48 h.
On to `COc1cccc(/C=N/NC(=O)c2ccccc2Nc2ccnc(C(F)(F)F)c2)c1O`, for which the GI50 was 0.418 µM and the TGI was 5.65 µM.

As to `Cc1ccc(CS/C(=C\c2ccc([N+](=O)[O-])cc2)C(=O)c2ccc(F)cc2)cc1`, the GI50 was 2.4 µM and the TGI came to 5.98 µM.

Regarding `CCOC(=O)CCc1cc(=O)oc2cc(O)cc(O)c12`, the TGI was above 100 µM.

On to `COC(=O)c1cc2c3ccccc3[nH]c2c2ncccc12`, for which the GI50 was 58 µM and the TGI is above 100 µM.

Turning to `CNC(=O)OCc1c(COC(=O)NC)c(-c2ccc(Cl)c(Cl)c2)n2c1SCC2`, the TGI was 25.1 µM.

Consider `C[C@]12CC[C@H](O)CC1=CC[C@@H]1[C@@H]2CC[C@]2(C)C(c3cccnc3)=CC[C@@H]12`, for which the GI50 was 46.1 µM and the TGI was above 100 µM.

`Cc1ccc2c(c1)C(=O)/C(=C/c1ncc([N+](=O)[O-])n1C)O2`: the GI50 is 1.14 µM and the TGI was 2.51 µM.

`CC1OC(n2cc(F)c(=O)[nH]c2=O)CCC1O` (stereo unspecified) came in with a TGI above 56.2 µM.
